Patent publication US9682928B2 (NeuroPro Therapeutics, Inc., priority 2009, dated 2017)
“And” between values parts separate entries of the source, which are not always exact repeats. Equal values may be shown once. “Also recorded” adds a separate entry of the source.

What was measured:
[1] = test system: mouse; conditions: literature data; cited from earlier work
[2] = test system: rats; assay: Contextual fear conditioning in rats; assay type: in vivo, rat; conditions: I.V.; furosemide 100 mg/kg, bumetanide 50 mg/kg
Description: Contextual fear conditioning involves pairing an aversive event, in this case moderate foot shock, with a distinctive environment. The strength of the fear memory is assessed using freezing, a species-typical defensive reaction in rats, marked by complete immobility, except for breathing. […] However, if they are allowed to explore the distinctive environment sometime before the immediate shock, they show intense anxiety and fear when placed back into the same environment. By procedurally dividing contextual fear conditioning into two phases, the effects of treatments on memory for the context (specifically a hippocampus based process) from learning the association between context and shock or experiencing the aversiveness of the shock (which depend upon emotional response circuitry including amygdala) were separately studied. […] The experiment employed 24 rats. […] Each rat was again placed into the same environment for 8 min during which time freezing was measured, as an index of Pavlovian conditioned fear. […] Measurement of freezing was accomplished through an overhead video camera connected to the microcomputer and was automatically scored using a specialty piece of software, FreezeFrame (OER Inc., Reston, Va.) Total freezing time was analyzed in a one-way analysis of variance (ANOVA) test, with drug dose as the […] factor.

[3] = in vivo; conditions: dog
[4] = Tolerability after oral administration; assay type: in vivo
[5] = target: T1, NKCC1 (Homo sapiens, UniProt P55011); assay: NKCC1 Rb+ influx assay in human adult skin fibroblasts; assay type: cell-based
T1 construct: endogenous in cells; host or cells: human adult skin fibroblasts (primary culture)
Description: The protocol may be done in accordance with Panet and Alan The Journal of Cell Biology, Volume 114, Number 2, July 1991 337-342. Human adult skin fibroblasts were seeded at 3 concentrations: 3000/5000/10 000 on 96 well culture plates with DMEM supplemented with 10% FCS and 4 mM glutamine (37° C., CO2). Medium was replaced with DMEM supplemented with 0.2% FCS, 4 mM glutamine and 20 mM HEPES (37° C., CO2). The NKCC assay may be performed according the standard operating procedure as described in Chassande, et al. (1988) “The Na+/K+/CI^− cotransport in C6 glioma cells.” Eur. J. Biochem. 171: 425-433.
This allows for the administration of the compounds described herein described herein without unwanted diuretic side effects.

[6] = test system: GABAA-IPSCs, hippocampal slices (CA1 pyramidal cell layer); assay: In vitro hippocampal slice recordings of miniature and spontaneous IPSCs; assay type: cell-based; conditions: two experiments
Description: Ion flux in neuronal cells was measured using standard techniques. Kandel and Schwartz Principles of Neural Science 2nd Edition (1985), see, e.g., pages 128-131. Recording was performed in vitro in hippocampal slices (CA1 pyramidal cell layer). For recording GABAA-IPSCs, glutamatergic and GABAB transmission was blocked by adding DNOX (50 μM), AP-5 (50 μM), and SCH50911 ([…]) into the medium. The intracellular solution comprised CsCl and OX314.

[7] = test system: mouse; assay: Formalin test (acute/early and late phase) in mice; assay type: in vivo
Description: The formalin test was performed according to the method of Tjølsen, et al. (October 1992) “The formalin test: an evaluation of the method.” Pain 51(1): 5-17. An injection of 0.5% formalin is made into the plantar region of the right hind paw of a mouse. This elicits a distinct behavioral profile in response to the formalin injection characterized by the mouse licking the affected paw. The behavior is characteristically biphasic in nature. For example, immediately following the injection the mouse intensely licks the paw for approximately 5-10 minutes (“min.”) This initial behavior was considered phase 1 (acute) and is thought to be mediated primarily by chemical activation of local C-fibers. The acute phase is followed by a brief latent (usually <5 min) period where there is little or no behavioral activity. A more prolonged (about 20 to 30 min) period of licking then ensues which constitutes phase 2 of the response (late phase). See e.g., Tjølsen, et al. (Feb. 7, 1991) “Antinociceptive effect of paracetamol in rats is partly dependent on spinal serotonergic systems. Eur J Pharmacol. 193(2): 193-201 and Tjølsen, et al. (June 1991) Lesions of bulbo-spinal serotonergic or noradrenergic pathways reduce nociception as measured by the formalin test. Acta Physiol Scand. 142(2): 229-36, the disclosures of each of which are hereby incorporated by reference in its entirety.
It is in these tubes that mice are later observed for the licking activity for the duration of the experiment. Following the conditioning, the test substance was administered i.p. in a dose equivalent to the MES ED50 and the mouse returned to its home tube. At the TPE of the drug, the formalin is injected subdermally into the plantar surface of the right hind foot. It is given in a volume of 20 μl with a 27 gauge stainless steel needle attached to a Hamilton syringe. The bevel of the needle was placed facing down toward the skin surface. […] The cumulative length of licking for each 2-min time period was measured. […] Animals are euthanized following the conclusion of the experiment.
Area under the curve (AUC) and subsequent percent of control for drug-treated animal groups is determined using the GraphPad Prism Version 3.03. Total AUC was calculated for both the test and control groups for both the acute and inflammatory phases. The AUC for individual animals for each phase was also calculated and converted to percentage of total AUC of control. The average and S.E.M. for both the drug treated and control percentages were calculated and tested for significant difference.

[8] = Brain levels in rat following IP administration; assay type: in vivo; conditions: PBx pretreated; for Concentration of NTP-2024 in rat brain: NTP-2024 100 mg/kg IP; for Concentration of NTP-2000 (bumetanide) in rat brain: after NTP-2024 100 mg/kg IP
[9] = test system: Male CD-1 mice; assay: Chung (SNL) neuropathic pain study in mice; assay type: in vivo, mouse; conditions: high dose group (180 mg/kg NTP-2014; 100 mg/kg NTP-2026; gabapentin 100 mg/kg, i.p.)

T1 sequence (P55011 whole entry): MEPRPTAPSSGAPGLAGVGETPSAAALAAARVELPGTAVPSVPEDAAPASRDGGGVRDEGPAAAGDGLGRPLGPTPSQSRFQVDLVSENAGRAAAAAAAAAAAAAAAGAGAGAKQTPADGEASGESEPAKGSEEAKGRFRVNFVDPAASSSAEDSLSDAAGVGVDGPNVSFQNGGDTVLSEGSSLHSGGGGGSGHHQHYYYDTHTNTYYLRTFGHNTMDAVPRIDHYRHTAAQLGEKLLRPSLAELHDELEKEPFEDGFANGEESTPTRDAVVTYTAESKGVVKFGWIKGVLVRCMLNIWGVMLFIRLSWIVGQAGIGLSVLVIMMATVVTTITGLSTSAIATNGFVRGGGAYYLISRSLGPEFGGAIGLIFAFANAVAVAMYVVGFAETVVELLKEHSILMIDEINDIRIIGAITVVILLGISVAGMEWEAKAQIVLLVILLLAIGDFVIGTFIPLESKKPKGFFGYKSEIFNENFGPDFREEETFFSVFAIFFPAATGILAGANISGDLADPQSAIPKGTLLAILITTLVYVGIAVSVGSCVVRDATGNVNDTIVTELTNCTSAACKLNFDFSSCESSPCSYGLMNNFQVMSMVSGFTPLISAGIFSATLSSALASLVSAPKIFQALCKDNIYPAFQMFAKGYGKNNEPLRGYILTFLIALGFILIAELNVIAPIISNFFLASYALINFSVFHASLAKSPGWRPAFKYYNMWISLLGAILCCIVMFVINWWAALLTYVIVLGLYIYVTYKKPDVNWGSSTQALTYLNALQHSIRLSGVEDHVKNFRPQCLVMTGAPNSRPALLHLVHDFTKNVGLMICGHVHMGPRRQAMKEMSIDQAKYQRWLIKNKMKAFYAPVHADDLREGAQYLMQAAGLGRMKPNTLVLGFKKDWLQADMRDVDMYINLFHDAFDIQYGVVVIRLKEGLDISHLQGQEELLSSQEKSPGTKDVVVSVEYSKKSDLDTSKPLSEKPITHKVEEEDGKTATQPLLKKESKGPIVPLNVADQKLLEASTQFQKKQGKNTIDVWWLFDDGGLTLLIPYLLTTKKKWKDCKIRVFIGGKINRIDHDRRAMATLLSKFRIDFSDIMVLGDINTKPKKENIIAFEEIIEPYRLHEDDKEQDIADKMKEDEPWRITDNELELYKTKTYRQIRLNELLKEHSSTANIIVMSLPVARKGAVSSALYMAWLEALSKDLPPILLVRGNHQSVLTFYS

## CCCCNc1cc(C(=O)O)cc(S(N)(=O)=O)c1Oc1ccccc1 [Bumetanide, reference compound]
[1]
  Activity in early phase formalin paw test: has little
  Activity in late phase formalin paw test: is active in late phase
[2]
  Freezing vs vehicle alone: significantly less freezing

## CCCCN(CCCC)c1cc(C(=O)O)cc(S(N)(=O)=O)c1Oc1ccccc1 [NTP-2014, 3-Aminosulfonyl-5-N,N-dibutylamino-4-phenoxybenzoic acid]
[3]
  NOAEL at 14 day: 4.5 mg/kg
[4]; after oral administration
  CNS side effects: no CNS side effects
[4]; in vivo
  Toxicological tolerability: well-tolerated
[5]
  Inhibition of NKCC1 in the presence of a co-transporter activating mitogen (FGF): did not inhibit
[5]; primary cell cultures
  Inhibition of NKCC1 chloride transport: no inhibition
[6]; from 257 ms (FIG. 34A) and from 535 ms (FIG. 34B)
  Mean interval between inhibitory events, spontaneous IPSCs, with NTP-2014: 205 ms and 401 ms
[6]; from 315 ms (FIG. 35A) and from 361 ms (FIG. 35B)
  Mean interval between inhibitory events, miniature IPSCs, with NTP-2014: 162 ms and 160 ms

## CCCCNc1cc(C(=O)NN2CCOCC2)cc(S(N)(=O)=O)c1Oc1ccccc1 [NTP-2024, N-Morpholinyl 3-Aminosulfonyl-5-N-butylamino-4-phenoxybenzamide]
[7]; 346 μmol/kg, 150 mg/kg, p < 0.01
  Decrease in pain, Formalin Paw Test (Mice) - Late Phase: 150 mg/kg; >80%
[7]; 346 μmol/kg, 150 mg/kg, p < 0.05
  Decrease in pain, Formalin Paw Test (Mice) - Early Phase: 150 mg/kg; ~40%;
[7]; 150 mg/kg i.p., mice
  % of Control, Acute: 58.55%
  % of Control, Late Phase: 12.54%
  Treated (AUC of licking time), Acute: 80.03
  Treated (AUC of licking time), Late Phase: 76.39
[8]; 15 m
  Concentration of NTP-2024 in rat brain: 283.783 ng/mL and 277.985 ng/mL and 226.803 ng/mL
  Concentration of NTP-2000 (bumetanide) in rat brain: BLQ (Below Limit of Quantitation (<1 ng/mL))
[8]; 30 m
  Concentration of NTP-2024 in rat brain: 223.370 ng/mL and 340.460 ng/mL and 348.182 ng/mL
[8]; 2 h
  Concentration of NTP-2024 in rat brain: 124.854 ng/mL and 112.217 ng/mL and 154.415 ng/mL
  Concentration of NTP-2000 (bumetanide) in rat brain: BLQ (Below Limit of Quantitation (<1 ng/mL))
[8]; 4 h
  Concentration of NTP-2024 in rat brain: 26.6338 ng/mL and 23.4893 ng/mL and 37.1694 ng/mL
  Concentration of NTP-2000 (bumetanide) in rat brain: BLQ (Below Limit of Quantitation (<1 ng/mL))
[8]; 6 h
  Concentration of NTP-2024 in rat brain: 25.4146 ng/mL and 18.4619 ng/mL and 25.7880 ng/mL
  Concentration of NTP-2000 (bumetanide) in rat brain: BLQ (Below Limit of Quantitation (<1 ng/mL))

## CCCCNc1cc(C(=O)N(C)CCCN(C)C)cc(S(N)(=O)=O)c1Oc1ccccc1 [NTP-2026, N-(3-(Dimethylamino)propyl)-N-methyl 3-Aminosulfonyl-5-N-butylamino-4-phenoxybenzamide]
[9]
  Sedation: Some minor sedation; also recorded: tactile hypersensitivity. Some minor
